Source: patent US9695155B2, “Herbicidal substituted pyrimidinyloxy benzene compounds” (E. I. DU PONT DE NEMOURS AND COMPANY, priority 2013, dated 2017)

What was measured:
wheat [1] = assay: Test A postemergence; format: in vivo, Triticum aestivum; settings: 0 to 100 scale where 0 is no effect and 100 is complete control; for Wheat plant response rating: 125 g ai/ha; for Plant response rating, Wheat: 500 g ai/ha
Summary of the method: (§1)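 Scoring: eye-based comparison with untreated controls, 0 for no effect through 100 for complete control, at about day 10. Treatments: directed soil spray preemergence; foliar spray postemergence on 2–10 cm plants at the one- to two-leaf stage. Medium: loam soil with sand.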

barnyardgrass [2] = assay: Test B flooded paddy test; format: in vivo, Echinochloa crus-galli; settings: Flood, 250 g ai/ha; 0 to 100 scale where 0 is no effect and 100 is complete control
Summary of the method: (§2)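 Plants at 2-leaf stage; pots flooded to 3 cm above soil and compound applied directly into paddy water, depth held throughout. After 13 to 15 days in greenhouse, visual rating versus controls on 0 (no effect) to 100 (complete control) scale.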

pigweed [3] = assay: Test A postemergence; format: in vivo, Amaranthus retroflexus; settings: 0 to 100 scale where 0 is no effect and 100 is complete control; for Pigweed plant response rating: 125 g ai/ha; for Plant response rating, Pigweed: 500 g ai/ha
Summary of the method: as §1

velvetleaf [4] = assay: Test A postemergence; format: in vivo, Abutilon theophrasti; settings: 0 to 100 scale where 0 is no effect and 100 is complete control; for Velvetleaf plant response rating: 125 g ai/ha; for Plant response rating, Velvetleaf: 500 g ai/ha
Summary of the method: as §1

velvetleaf [5] = assay: Test A preemergence; format: in vivo, Abutilon theophrasti; settings: for Velvetleaf plant response rating (0 to 100 scale): 125 g ai/ha; for Velvetleaf plant response rating: 500 g ai/ha, 0 to 100 scale where 0 is no effect and 100 is complete control
Summary of the method: as §1

corn [6] = assay: Test A preemergence; format: in vivo, Zea mays; settings: for Corn plant response rating (0 to 100 scale): 125 g ai/ha; for Corn plant response rating: 500 g ai/ha, 0 to 100 scale where 0 is no effect and 100 is complete control
Summary of the method: as §1

giant foxtail [7] = assay: Test A preemergence; format: in vivo, Setaria faberii; settings: for Foxtail, Giant plant response rating (0 to 100 scale): 125 g ai/ha; for Foxtail, Giant plant response rating: 500 g ai/ha, 0 to 100 scale where 0 is no effect and 100 is complete control
Summary of the method: as §1

morningglory [8] = assay: Test A postemergence; format: in vivo, Ipomoea spp.; settings: 0 to 100 scale where 0 is no effect and 100 is complete control; for Morningglory plant response rating: 125 g ai/ha; for Plant response rating, Morningglory: 500 g ai/ha
Summary of the method: as §1

corn [9] = assay: Test A postemergence; format: in vivo, Zea mays; settings: 0 to 100 scale where 0 is no effect and 100 is complete control; for Corn plant response rating: 125 g ai/ha; for Plant response rating, Corn: 500 g ai/ha
Summary of the method: as §1

pigweed [10] = assay: Test A preemergence; format: in vivo, Amaranthus retroflexus; settings: for Pigweed plant response rating (0 to 100 scale): 125 g ai/ha; for Pigweed plant response rating: 500 g ai/ha, 0 to 100 scale where 0 is no effect and 100 is complete control
Summary of the method: as §1

morningglory [11] = assay: Test A preemergence; format: in vivo, Ipomoea spp.; settings: for Morningglory plant response rating (0 to 100 scale): 125 g ai/ha; for Morningglory plant response rating: 500 g ai/ha, 0 to 100 scale where 0 is no effect and 100 is complete control
Summary of the method: as §1

wheat [12] = assay: Test A preemergence; format: in vivo, Triticum aestivum; settings: for Wheat plant response rating (0 to 100 scale): 125 g ai/ha; for Wheat plant response rating: 500 g ai/ha, 0 to 100 scale where 0 is no effect and 100 is complete control
Summary of the method: as §1

barnyardgrass [13] = assay: Test A postemergence; format: in vivo, Echinochloa crus-galli; settings: 0 to 100 scale where 0 is no effect and 100 is complete control; for Barnyardgrass plant response rating: 125 g ai/ha; for Plant response rating, Barnyardgrass: 500 g ai/ha
Summary of the method: as §1

large (Lg) crabgrass [14] = assay: Test A postemergence; format: in vivo, Digitaria sanguinalis; settings: 0 to 100 scale where 0 is no effect and 100 is complete control; for Crabgrass, Large plant response rating: 125 g ai/ha; for Plant response rating, Crabgrass, Large: 500 g ai/ha
Summary of the method: as §1

sedge, umbrella = assay: Test B flooded paddy test; format: in vivo, Cyperus difformis; settings: Flood, 250 g ai/ha; 0 to 100 scale where 0 is no effect and 100 is complete control
Summary of the method: as §2

Heteranthera limosa = assay: Test B flooded paddy test; format: in vivo; settings: Flood, 250 g ai/ha; 0 to 100 scale where 0 is no effect and 100 is complete control
Summary of the method: as §2

giant foxtail [15] = assay: Test A postemergence; format: in vivo, Setaria faberii; settings: 0 to 100 scale where 0 is no effect and 100 is complete control; for Foxtail, Giant plant response rating: 125 g ai/ha; for Plant response rating, Foxtail, Giant: 500 g ai/ha
Summary of the method: as §1

barnyardgrass [16] = assay: Test A preemergence; format: in vivo, Echinochloa crus-galli; settings: for Barnyardgrass plant response rating (0 to 100 scale, 0 is no effect, 100 is complete control): 125 g ai/ha; for Barnyardgrass plant response rating: 500 g ai/ha, 0 to 100 scale where 0 is no effect and 100 is complete control
Summary of the method: as §1

rice = assay: Test B flooded paddy test; format: in vivo, Oryza sativa; settings: Flood, 250 g ai/ha; 0 to 100 scale where 0 is no effect and 100 is complete control
Summary of the method: as §2

large (Lg) crabgrass [17] = assay: Test A preemergence; format: in vivo, Digitaria sanguinalis; settings: for Crabgrass, Large plant response rating (0 to 100 scale): 125 g ai/ha; for Crabgrass, Large plant response rating: 500 g ai/ha, 0 to 100 scale where 0 is no effect and 100 is complete control
Summary of the method: as §1

| Structure (SMILES) | Wheat plant response rating (wheat [1]) | Plant response rating, Wheat (wheat [1]) | Plant response rating, Barnyardgrass (barnyardgrass [2]) | Pigweed plant response rating (pigweed [3]) | Plant response rating, Pigweed (pigweed [3]) | Velvetleaf plant response rating (velvetleaf [4]) | Plant response rating, Velvetleaf (velvetleaf [4]) | Velvetleaf plant response rating (0 to 100 scale) (velvetleaf [5]) | Velvetleaf plant response rating (velvetleaf [5]) | Corn plant response rating (0 to 100 scale) (corn [6]) | Corn plant response rating (corn [6]) | Foxtail, Giant plant response rating (0 to 100 scale) (giant foxtail [7]) | Foxtail, Giant plant response rating (giant foxtail [7]) | Morningglory plant response rating (morningglory [8]) | Plant response rating, Morningglory (morningglory [8]) | Corn plant response rating (corn [9]) | Plant response rating, Corn (corn [9]) | Pigweed plant response rating (0 to 100 scale) (pigweed [10]) | Pigweed plant response rating (pigweed [10]) | Morningglory plant response rating (0 to 100 scale) (morningglory [11]) | other results |
| --- | --- | --- | --- | --- | --- | --- | --- | --- | --- | --- | --- | --- | --- | --- | --- | --- | --- | --- | --- | --- | --- |
| Clc1cnc(Oc2ccccc2-n2cc(-c3ccccn3)cn2)nc1 [Compound 190] | 0 | 0 | 0 | 100 | 100 | 60 | 80 | 50 | 60 | 0 | 0 | 10 | 80 | 30 | 90 | 0 | 20 | 100 | 100 | 0 | Morningglory plant response rating (morningglory [11]): 20; Wheat plant response rating (0 to 100 scale) (wheat [12]): 0; Wheat plant response rating (wheat [12]): 0; Barnyardgrass plant response rating (barnyardgrass [13]): 0; Plant response rating, Barnyardgrass (barnyardgrass [13]): 10; Crabgrass, Large plant response rating (large (Lg) crabgrass [14]): 10; Plant response rating, Crabgrass, Large (large (Lg) crabgrass [14]): 50; Plant response rating, Sedge, Umbrella (sedge, umbrella): 0; Plant response rating, Ducksalad (Heteranthera limosa): 0; Foxtail, Giant plant response rating (giant foxtail [15]): 0; Plant response rating, Foxtail, Giant (giant foxtail [15]): 40; Barnyardgrass plant response rating (0 to 100 scale, 0 is no effect, 100 is complete control) (barnyardgrass [16]): 0; Barnyardgrass plant response rating (barnyardgrass [16]): 10; Plant response rating, Rice (rice): 0; Crabgrass, Large plant response rating (0 to 100 scale) (large (Lg) crabgrass [17]): 20; Crabgrass, Large plant response rating (large (Lg) crabgrass [17]): 90 |
| N#Cc1cc(F)cc(Oc2ncc(Cl)cn2)c1-n1cc(Br)cn1 [Compound 238] | 0 | 60 | 0 | 100 | 100 | 60 | 100 | 70 | 90 | 0 | 90 | 100 | 100 | 40 | 60 | 0 | 80 | 100 | 100 | 10 | Morningglory plant response rating (morningglory [11]): 100; Wheat plant response rating (0 to 100 scale) (wheat [12]): 0; Wheat plant response rating (wheat [12]): 30; Barnyardgrass plant response rating (barnyardgrass [13]): 40; Plant response rating, Barnyardgrass (barnyardgrass [13]): 100; Crabgrass, Large plant response rating (large (Lg) crabgrass [14]): 60; Plant response rating, Crabgrass, Large (large (Lg) crabgrass [14]): 90; Plant response rating, Sedge, Umbrella (sedge, umbrella): 90; Plant response rating, Ducksalad (Heteranthera limosa): 70; Foxtail, Giant plant response rating (giant foxtail [15]): 60; Plant response rating, Foxtail, Giant (giant foxtail [15]): 90; Barnyardgrass plant response rating (0 to 100 scale, 0 is no effect, 100 is complete control) (barnyardgrass [16]): 70; Barnyardgrass plant response rating (barnyardgrass [16]): 100; Plant response rating, Rice (rice): 0; Crabgrass, Large plant response rating (0 to 100 scale) (large (Lg) crabgrass [17]): 100; Crabgrass, Large plant response rating (large (Lg) crabgrass [17]): 100 |
